Assay results: the kinase profiling compilation of Christmann-Franck et al. (2016)

Experiments:
Test in all cases: radiometric filter-binding kinase assay
[1] = biological target: EPHA4 (human) (UniProt P54764)
[2] = biological target: IKBKE (human) (UniProt Q14164)
[3] = biological target: AURKB (human) (UniProt Q96GD4)
[4] = biological target: MELK (human) (UniProt Q14680)
[5] = biological target: CAMKK2 (human) (UniProt Q96RR4)
[6] = biological target: MAPKAPK2 (human) (UniProt P49137)
[7] = biological target: MINK1 (human) (UniProt Q8N4C8)
[8] = biological target: MAP3K11 (human) (UniProt Q16584)
[9] = biological target: IKBKB (human) (UniProt O14920)
Chain of IKBKB (human) (O14920 whole entry, looked up): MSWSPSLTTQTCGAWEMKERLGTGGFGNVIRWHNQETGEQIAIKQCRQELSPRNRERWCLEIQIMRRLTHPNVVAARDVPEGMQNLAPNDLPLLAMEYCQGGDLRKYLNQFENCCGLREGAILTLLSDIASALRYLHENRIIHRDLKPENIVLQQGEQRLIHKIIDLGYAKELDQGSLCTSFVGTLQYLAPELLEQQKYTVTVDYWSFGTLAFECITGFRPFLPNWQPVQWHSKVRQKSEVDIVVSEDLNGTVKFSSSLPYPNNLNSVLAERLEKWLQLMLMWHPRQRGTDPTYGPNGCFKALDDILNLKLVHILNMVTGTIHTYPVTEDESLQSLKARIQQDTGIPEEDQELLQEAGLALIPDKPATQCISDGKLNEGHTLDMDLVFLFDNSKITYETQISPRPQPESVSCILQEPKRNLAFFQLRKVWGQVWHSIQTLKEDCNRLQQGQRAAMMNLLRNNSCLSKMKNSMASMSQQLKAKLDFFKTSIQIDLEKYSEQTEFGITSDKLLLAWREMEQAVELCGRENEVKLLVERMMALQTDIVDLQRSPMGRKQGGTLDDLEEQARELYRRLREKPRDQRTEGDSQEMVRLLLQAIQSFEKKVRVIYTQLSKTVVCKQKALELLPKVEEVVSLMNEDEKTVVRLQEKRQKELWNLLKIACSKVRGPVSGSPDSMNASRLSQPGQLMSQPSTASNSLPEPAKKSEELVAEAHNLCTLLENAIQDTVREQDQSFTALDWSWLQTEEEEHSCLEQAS

[10] = biological target: IGF1R (human) (UniProt P08069)
[11] = biological target: PAK7 (human) (UniProt Q9P286)
Chain of PAK7 (human) (Q9P286 whole entry, looked up): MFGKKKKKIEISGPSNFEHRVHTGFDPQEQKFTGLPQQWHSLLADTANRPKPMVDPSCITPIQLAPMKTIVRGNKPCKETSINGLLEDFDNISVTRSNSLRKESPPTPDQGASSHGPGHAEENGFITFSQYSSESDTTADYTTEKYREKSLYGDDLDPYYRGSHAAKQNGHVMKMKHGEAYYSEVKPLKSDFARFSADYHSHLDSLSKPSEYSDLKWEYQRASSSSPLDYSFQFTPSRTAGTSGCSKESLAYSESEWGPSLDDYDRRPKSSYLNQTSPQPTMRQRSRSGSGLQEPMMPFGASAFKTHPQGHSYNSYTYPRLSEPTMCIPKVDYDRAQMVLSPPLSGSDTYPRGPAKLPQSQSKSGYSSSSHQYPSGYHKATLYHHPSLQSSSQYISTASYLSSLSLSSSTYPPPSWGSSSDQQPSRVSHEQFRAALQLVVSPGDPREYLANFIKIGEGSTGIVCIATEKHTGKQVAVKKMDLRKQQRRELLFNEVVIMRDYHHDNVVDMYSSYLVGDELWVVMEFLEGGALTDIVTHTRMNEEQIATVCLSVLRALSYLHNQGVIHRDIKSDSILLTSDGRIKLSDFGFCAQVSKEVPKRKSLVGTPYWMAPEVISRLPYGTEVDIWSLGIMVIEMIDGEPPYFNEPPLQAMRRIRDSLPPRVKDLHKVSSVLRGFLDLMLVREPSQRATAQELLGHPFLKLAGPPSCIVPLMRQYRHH

[12] = biological target: HIPK2 (human) (UniProt Q9H2X6); settings: compound 10.0 µM
[13] = biological target: PIM1 (human) (UniProt P11309)
Chain of PIM1 (human) (P11309 whole entry, looked up): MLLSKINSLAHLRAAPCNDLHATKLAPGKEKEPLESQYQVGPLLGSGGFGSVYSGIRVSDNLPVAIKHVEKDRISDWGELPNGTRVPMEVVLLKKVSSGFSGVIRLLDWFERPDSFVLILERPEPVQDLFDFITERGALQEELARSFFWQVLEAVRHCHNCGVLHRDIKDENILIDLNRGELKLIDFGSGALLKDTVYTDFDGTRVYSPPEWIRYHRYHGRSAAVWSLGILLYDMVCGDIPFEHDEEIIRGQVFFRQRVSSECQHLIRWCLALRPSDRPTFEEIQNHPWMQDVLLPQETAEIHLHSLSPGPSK

[14] = biological target: DYRK1A (human) (UniProt Q13627)
[15] = biological target: MAPK14 (human) (UniProt Q16539)
[16] = biological target: BRSK1 (human) (UniProt Q8TDC3); settings: compound 10.0 µM
[17] = biological target: CaMK1 (human) (UniProt Q14012)
[18] = biological target: PAK4 (human) (UniProt O96013)
[19] = biological target: DYRK2 (human) (UniProt Q92630)
[20] = biological target: MAPK15 (human) (UniProt Q8TD08)
[21] = biological target: MAPK8 (human) (UniProt P45983)
Chain of MAPK8 (human) (P45983 whole entry, looked up): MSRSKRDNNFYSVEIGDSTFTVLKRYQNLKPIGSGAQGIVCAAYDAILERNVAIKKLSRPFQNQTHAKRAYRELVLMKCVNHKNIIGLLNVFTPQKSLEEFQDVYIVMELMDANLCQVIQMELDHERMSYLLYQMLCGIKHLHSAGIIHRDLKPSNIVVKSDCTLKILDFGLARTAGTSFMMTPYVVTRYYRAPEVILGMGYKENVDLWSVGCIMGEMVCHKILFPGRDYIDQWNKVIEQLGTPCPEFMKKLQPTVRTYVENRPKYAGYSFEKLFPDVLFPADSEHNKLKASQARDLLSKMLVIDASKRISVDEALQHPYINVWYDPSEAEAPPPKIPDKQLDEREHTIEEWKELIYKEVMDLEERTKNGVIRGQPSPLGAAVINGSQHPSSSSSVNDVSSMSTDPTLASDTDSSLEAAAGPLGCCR

[22] = biological target: EPHB3 (human) (UniProt P54753)
[23] = biological target: CSNK1D (human) (UniProt P48730)
Chain of CSNK1D (human) (P48730 whole entry, looked up): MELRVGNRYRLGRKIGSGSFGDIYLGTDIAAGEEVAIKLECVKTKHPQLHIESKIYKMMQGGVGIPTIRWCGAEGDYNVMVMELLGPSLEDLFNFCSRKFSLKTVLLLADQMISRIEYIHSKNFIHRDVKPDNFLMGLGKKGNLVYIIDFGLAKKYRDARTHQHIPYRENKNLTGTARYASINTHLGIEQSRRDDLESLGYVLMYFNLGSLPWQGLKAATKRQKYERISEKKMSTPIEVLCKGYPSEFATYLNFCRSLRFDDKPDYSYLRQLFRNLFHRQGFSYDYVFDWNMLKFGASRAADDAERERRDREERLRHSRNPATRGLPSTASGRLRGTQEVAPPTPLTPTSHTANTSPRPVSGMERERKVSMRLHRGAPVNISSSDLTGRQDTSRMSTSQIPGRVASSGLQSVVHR

[24] = biological target: MAP2K2 (human) (UniProt P36507)
Chain of MAP2K2 (human) (P36507 whole entry, looked up): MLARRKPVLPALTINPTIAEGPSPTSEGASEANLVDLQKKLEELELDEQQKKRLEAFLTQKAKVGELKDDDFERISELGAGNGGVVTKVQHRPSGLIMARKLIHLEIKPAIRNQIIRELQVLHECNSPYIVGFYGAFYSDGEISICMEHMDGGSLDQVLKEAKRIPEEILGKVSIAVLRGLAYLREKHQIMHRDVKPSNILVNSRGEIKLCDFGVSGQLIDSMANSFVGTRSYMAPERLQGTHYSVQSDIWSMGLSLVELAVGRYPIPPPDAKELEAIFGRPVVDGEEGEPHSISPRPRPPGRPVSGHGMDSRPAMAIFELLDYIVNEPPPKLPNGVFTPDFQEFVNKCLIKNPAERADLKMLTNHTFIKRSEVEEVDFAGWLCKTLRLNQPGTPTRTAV

[25] = biological target: CSK (human) (UniProt P41240)
[26] = biological target: MAPK12 (human) (UniProt P53778)
[27] = biological target: PRKACA (human) (UniProt P17612)
[28] = biological target: MAPKAPK5 (human) (UniProt Q8IW41)
Chain of MAPKAPK5 (human) (Q8IW41 whole entry, looked up): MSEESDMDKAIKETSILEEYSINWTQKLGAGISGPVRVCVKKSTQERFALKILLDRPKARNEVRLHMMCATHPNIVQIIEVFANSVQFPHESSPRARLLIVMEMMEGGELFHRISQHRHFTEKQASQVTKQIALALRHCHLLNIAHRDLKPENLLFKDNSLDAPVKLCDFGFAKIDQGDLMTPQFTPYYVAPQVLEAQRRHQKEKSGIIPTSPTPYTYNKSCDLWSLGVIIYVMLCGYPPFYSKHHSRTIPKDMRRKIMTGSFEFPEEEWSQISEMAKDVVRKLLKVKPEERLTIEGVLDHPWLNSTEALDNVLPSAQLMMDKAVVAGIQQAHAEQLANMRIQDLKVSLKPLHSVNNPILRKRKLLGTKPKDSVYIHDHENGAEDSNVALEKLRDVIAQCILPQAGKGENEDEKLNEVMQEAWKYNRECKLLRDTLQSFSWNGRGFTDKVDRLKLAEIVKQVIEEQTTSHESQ

[29] = biological target: RIPK2 (human) (UniProt O43353)
[30] = biological target: EPHB2 (human) (UniProt P29323)
Chain of EPHB2 (human) (P29323 whole entry, looked up): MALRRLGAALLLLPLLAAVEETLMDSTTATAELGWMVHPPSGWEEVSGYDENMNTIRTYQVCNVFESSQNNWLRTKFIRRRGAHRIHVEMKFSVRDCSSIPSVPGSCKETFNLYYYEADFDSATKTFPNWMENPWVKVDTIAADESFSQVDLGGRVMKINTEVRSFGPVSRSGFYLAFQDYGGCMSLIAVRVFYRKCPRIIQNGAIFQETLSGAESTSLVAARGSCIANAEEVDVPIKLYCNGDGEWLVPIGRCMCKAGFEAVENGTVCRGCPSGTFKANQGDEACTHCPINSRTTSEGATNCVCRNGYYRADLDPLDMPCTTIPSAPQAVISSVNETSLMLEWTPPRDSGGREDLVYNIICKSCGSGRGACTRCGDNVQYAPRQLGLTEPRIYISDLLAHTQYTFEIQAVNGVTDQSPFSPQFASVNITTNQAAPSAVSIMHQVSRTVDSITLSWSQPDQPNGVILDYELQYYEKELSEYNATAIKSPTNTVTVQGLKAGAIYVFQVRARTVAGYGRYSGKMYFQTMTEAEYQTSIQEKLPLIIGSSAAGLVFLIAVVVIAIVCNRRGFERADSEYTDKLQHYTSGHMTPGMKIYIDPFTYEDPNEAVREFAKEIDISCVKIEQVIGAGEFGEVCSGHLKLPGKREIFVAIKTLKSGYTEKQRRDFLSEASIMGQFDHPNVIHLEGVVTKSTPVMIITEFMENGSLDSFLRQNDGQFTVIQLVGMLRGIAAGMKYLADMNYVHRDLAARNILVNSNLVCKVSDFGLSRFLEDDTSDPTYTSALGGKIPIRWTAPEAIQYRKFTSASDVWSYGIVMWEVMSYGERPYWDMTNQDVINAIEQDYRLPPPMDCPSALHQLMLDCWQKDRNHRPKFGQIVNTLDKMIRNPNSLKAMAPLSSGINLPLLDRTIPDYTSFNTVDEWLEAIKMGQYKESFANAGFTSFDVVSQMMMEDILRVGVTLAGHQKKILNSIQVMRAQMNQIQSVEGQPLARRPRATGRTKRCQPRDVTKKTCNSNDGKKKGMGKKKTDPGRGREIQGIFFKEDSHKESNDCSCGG

[31] = biological target: MKNK2 (human) (UniProt Q9HBH9)
[32] = biological target: MAP3K7 TAB1 (human) (UniProt Q15750+O43318)
[33] = biological target: MAPK9 (human) (UniProt P45984)
[34] = biological target: YES1 (human) (UniProt P07947)

Chain of AURKB (human) (Q96GD4 whole entry, looked up): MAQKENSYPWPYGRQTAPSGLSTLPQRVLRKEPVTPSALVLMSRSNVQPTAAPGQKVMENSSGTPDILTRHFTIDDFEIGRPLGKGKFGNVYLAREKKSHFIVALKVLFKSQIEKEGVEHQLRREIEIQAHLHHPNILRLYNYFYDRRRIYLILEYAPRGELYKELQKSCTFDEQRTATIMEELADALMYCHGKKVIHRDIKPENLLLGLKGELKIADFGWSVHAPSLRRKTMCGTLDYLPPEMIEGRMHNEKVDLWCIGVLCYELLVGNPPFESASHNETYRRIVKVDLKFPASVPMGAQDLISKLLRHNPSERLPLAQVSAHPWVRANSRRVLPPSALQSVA

`C=CC(=O)N1CCC[C@@H](n2nc(-c3ccc(Oc4ccccc4)cc3)c3c(N)ncnc32)C1` was tested, and the residual activity ([1]; compound 1.0 µM) was 92%, the residual activity ([1]; compound 10.0 µM) was 45% and the residual activity ([2]; compound 0.1 µM) was 100%. For the same molecule, the residual activity ([2]; compound 1.0 µM) was 95%, the residual activity ([2]; compound 10.0 µM) was 66% and the residual activity ([3]; compound 0.1 µM) was 96%. The residual activity ([3]; compound 1.0 µM) was 61%, the residual activity ([3]; compound 10.0 µM) was 13% and the residual activity ([4]; compound 0.1 µM) was 69%. It also gave a residual activity ([4]; compound 10.0 µM) of 56%, a residual activity ([5]; compound 0.1 µM) of 86% and a residual activity ([5]; compound 1.0 µM) of 109%. For the same molecule, the residual activity ([5]; compound 10.0 µM) was 80%, the residual activity ([6]; compound 0.1 µM) was 88% and the residual activity ([6]; compound 1.0 µM) was 95%. It also gave a residual activity ([6]; compound 10.0 µM) of 90%, a residual activity ([7]; compound 0.1 µM) of 90% and a residual activity ([7]; compound 1.0 µM) of 91%. It also gave a residual activity ([7]; compound 10.0 µM) of 57%, a residual activity ([8]; compound 0.1 µM) of 87% and a residual activity ([8]; compound 1.0 µM) of 65%. It also gave a residual activity ([8]; compound 10.0 µM) of 28%, a residual activity ([9]; compound 0.1 µM) of 94% and a residual activity ([9]; compound 1.0 µM) of 107%. For the same molecule, the residual activity ([9]; compound 10.0 µM) was 90%, the residual activity ([10]; compound 0.1 µM) was 95% and the residual activity ([10]; compound 1.0 µM) was 93%. The residual activity ([10]; compound 10.0 µM) was 63%, the residual activity ([11]; compound 0.1 µM) was 93% and the residual activity ([11]; compound 1.0 µM) was 97%. It also gave a residual activity ([11]; compound 10.0 µM) of 50%, a residual activity [12] of 66% and a residual activity ([13]; compound 0.1 µM) of 98%. For the same molecule, the residual activity ([13]; compound 1.0 µM) was 95%, the residual activity ([13]; compound 10.0 µM) was 81% and the residual activity ([14]; compound 0.1 µM) was 112%. It also gave a residual activity ([14]; compound 1.0 µM) of 105%, a residual activity ([14]; compound 10.0 µM) of 87% and a residual activity ([15]; compound 0.1 µM) of 99%. It also gave a residual activity ([15]; compound 1.0 µM) of 103%, a residual activity ([15]; compound 10.0 µM) of 101% and a residual activity [16] of 49%. The residual activity ([17]; compound 0.1 µM) was 80%, the residual activity ([17]; compound 1.0 µM) was 99% and the residual activity ([17]; compound 10.0 µM) was 33%. It also gave a residual activity ([18]; compound 0.1 µM) of 93%, a residual activity ([18]; compound 1.0 µM) of 85% and a residual activity ([18]; compound 10.0 µM) of 42%. It also gave a residual activity ([19]; compound 0.1 µM) of 83%, a residual activity ([19]; compound 1.0 µM) of 105% and a residual activity ([19]; compound 10.0 µM) of 79%. It also gave a residual activity ([20]; compound 0.1 µM) of 85%, a residual activity ([20]; compound 1.0 µM) of 98% and a residual activity ([20]; compound 10.0 µM) of 74%. The residual activity ([21]; compound 0.1 µM) was 98%, the residual activity ([21]; compound 1.0 µM) was 98% and the residual activity ([21]; compound 10.0 µM) was 75%. For the same molecule, the residual activity ([22]; compound 0.1 µM) was 99%, the residual activity ([22]; compound 1.0 µM) was 96% and the residual activity ([22]; compound 10.0 µM) was 51%. The residual activity ([23]; compound 0.1 µM) was 98%, the residual activity ([23]; compound 1.0 µM) was 111% and the residual activity ([23]; compound 10.0 µM) was 115%. For the same molecule, the residual activity ([24]; compound 0.1 µM) was 94%, the residual activity ([24]; compound 1.0 µM) was 94% and the residual activity ([24]; compound 10.0 µM) was 63%. For the same molecule, the residual activity ([25]; compound 0.1 µM) was 25%, the residual activity ([25]; compound 1.0 µM) was 15% and the residual activity ([25]; compound 10.0 µM) was 3%. It also gave a residual activity ([26]; compound 0.1 µM) of 89%, a residual activity ([26]; compound 1.0 µM) of 112% and a residual activity ([27]; compound 0.1 µM) of 89%. The residual activity ([27]; compound 1.0 µM) was 101%, the residual activity ([27]; compound 10.0 µM) was 97% and the residual activity ([28]; compound 0.1 µM) was 101%. It also gave a residual activity ([28]; compound 1.0 µM) of 107%, a residual activity ([28]; compound 10.0 µM) of 83% and a residual activity ([29]; compound 0.1 µM) of 21%. It also gave a residual activity ([29]; compound 1.0 µM) of 5%, a residual activity ([29]; compound 10.0 µM) of 2% and a residual activity ([30]; compound 0.1 µM) of 102%. The residual activity ([30]; compound 1.0 µM) was 65%, the residual activity ([30]; compound 10.0 µM) was 11% and the residual activity ([31]; compound 0.1 µM) was 106%. It also gave a residual activity ([31]; compound 10.0 µM) of 67%, a residual activity ([32]; compound 0.1 µM) of 102% and a residual activity ([32]; compound 1.0 µM) of 106%. For the same molecule, the residual activity ([32]; compound 10.0 µM) was 66%, the residual activity ([33]; compound 0.1 µM) was 89% and the residual activity ([33]; compound 1.0 µM) was 101%. For the same molecule, the residual activity ([34]; compound 0.1 µM) was 20%, the residual activity ([34]; compound 1.0 µM) was 16% and the residual activity ([34]; compound 10.0 µM) was 13%.
